Reference: patent US9725414B2, “Fungicidal N-bicycloalkyl and N-tricycloalkyl pyrazole-4-(thio)carboxamide derivatives” (priority 2011, dated 2017)

Key:
[1] = test system: Botrytis cinerea; assay: Example P: in vivo preventive test on Botrytis cinerea (grey mould), gherkin plants; settings: 500 ppm of active ingredient, grading 4 to 5 days after contamination
Outline: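 Gherkin plants at Z11 cotyledon stage sprayed preventively with active ingredient, then inoculated 24 h later with B. cinerea spores (50 000/mL) in PDB/fructose nutrient solution. Incubation at 17 °C and 90% RH; % efficacy graded 4–5 days post-inoculation against solvent-treated controls.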

[2] = test system: Puccinia recondita; assay: Example M: in vivo preventive test on Puccinia recondita (brown rust on wheat); settings: 500 ppm of active ingredient, grading 12 days after contamination
Outline: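 Wheat (Scipion) sprayed with compound at 1-leaf stage, grown at 22° C. Inoculated 24 h later with a spore suspension at 100 000 spores per mL. Efficacy (%) graded 12 days after inoculation against solvent-treated controls.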

[3] = test system: Sphaerotheca fuliginea; assay: Example B: in vivo preventive test on Sphaerotheca fuliginea (powdery mildew on cucurbits), gherkin plants; settings: 500 ppm of active ingredient, grading 12 days after contamination
Outline: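 Gherkin plants grown at 24 °C were sprayed with compound at the Z11 cotyledon stage; controls received acetone/tween/DMSO/water without active. 24 h later, cotyledons were inoculated by spraying with Sphaerotheca fuliginea spores (100 000 spores per mL).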

[4] = test system: Pyrenophora teres; assay: Example F: in vivo preventive test on Pyrenophora teres (barley), acetone/tween/DMSO preparation; settings: 500 ppm of active ingredient, barley, grading 14 days after contamination
Outline: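 Barley ("Plaisant") grown at 22° C was sprayed at the 1-leaf stage (10 cm) with active ingredient in acetone/tween/DMSO/water, with solvent-only controls. After 24 h, leaves were inoculated with Pyrenophora teres spores (12 000 spores per mL) from 12-day cultures. % efficacy versus controls graded 14 days post-contamination.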

[5] = test system: Septoria tritici; assay: Example I: in vivo preventive test on Septoria tritici (wheat), acetone/tween/DMSO preparation; settings: 500 ppm of active ingredient, grading 24 days after contamination
Outline: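 Scipion wheat grown at 22° C, sprayed at 1-leaf stage (10 cm); controls received acetone/tween/DMSO/water without active. Inoculated 24 h later with S. tritici spores (500 000/mL), held 72 h at 18° C, 100% RH, then 21 days at 90% RH. % efficacy vs controls scored 24 days post-inoculation.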

[6] = test system: Alternaria brassicae; assay: Example D: in vivo preventive test on Alternaria brassicae (leaf spot on radish); settings: 500 ppm of active ingredient, grading 6 days after contamination
Outline: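 Radish plants at cotyledon stage were sprayed with compound; controls got the acetone/tween/DMSO/water mix alone. After 24 h they were inoculated with Alternaria brassicae spores (50 000 spores per mL) and kept at 20 °C, 100% relative humidity. % efficacy versus controls was graded 6 days post-inoculation.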

[7] = test system: Pyrenophora teres; assay: Example E: in vivo preventive test on Pyrenophora teres (barley), DMF/emulsifier preparation; settings: 500 ppm of active ingredient, evaluated 7-9 days after inoculation
Outline: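 Young barley plants sprayed preventively with compound formulated in DMF/alkylaryl polyglycol ether emulsifier and diluted in water. One day later inoculated with aqueous Pyrenophora teres spore suspension, then held 48 h at 22 °C and 100% relative humidity.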

[8] = test system: Sphaerotheca fuliginea; assay: Example A: in vivo preventive test on Sphaerotheca fuliginea (cucumber); settings: 500 ppm of active ingredient, evaluated 7 days after inoculation
Procedure: In Vivo Preventive Test on Sphaerotheca fuliginea (Cucumber) Solvent: 49 parts by weight of N,N-dimethylformamide Emulsifier: 1 part by weight of alkylarylpolyglycolether To produce a suitable preparation of active compound, 1 part by weight of active compound is mixed with the stated amounts of solvent and emulsifier, and the concentrate is diluted with water to the desired concentration. To test for preventive activity, young plants are sprayed with the preparation of active compound at the stated rate of application. One day after this treatment, the plants are inoculated with an aqueous spore suspension of Sphaerotheca fuliginea. Then the plants are placed in a greenhouse at approximately 23° C. and a relative atmospheric humidity of approximately 70%.

Row | SMILES | Efficacy [1] [%] | Efficacy [2] [%] | Efficacy [3] [%] | Efficacy [4] [%] | Efficacy [5] [%] | Efficacy [6] [%] | Efficacy [7] [%] | Efficacy [8] [%]
1 | Cn1nc(C(F)F)c(C(=O)N(C2CC2)C2CC3CCCCC3C2)c1F (centres unmarked) [Example 12] | 100 | 94 | 98 | 100 | 100 | – | – | –
2 | Cn1nc(C(F)F)c(C(=O)N(C2CC2)C2CCCC3CCCC32)c1F (centres unmarked) [Example 19] | 100 | 100 | 100 | 100 | 96 | 100 | – | –
3 | Cn1cc(C(=O)N(C2CC2)C2CCCC3CCCC32)c(C(F)F)n1 (centres unmarked) [Example 20] | 100 | 81 | 100 | 97 | 96 | – | – | –
4 | Cn1nc(C(F)F)c(C(=O)N(CC2CCC3CCCC3C2)C2CC2)c1F (centres unmarked) [Example 62] | – | 98 | 100 | 97 | 100 | – | – | –
5 | Cn1nc(C(F)F)c(C(=O)N(CC2(Cc3ccccc3)CC3CCC2C3)C2CC2)c1F (centres unmarked) [Example 69] | – | 81 | 100 | 97 | 97 | 96 | – | –
6 | Cn1nc(C(F)F)c(C(=O)N(CC2CC3CCC2C3)C2CC2)c1F (centres unmarked) [Example 71] | – | – | – | – | – | – | 100 | 100
7 | CC(C1CC2CCC1C2)N(C(=O)c1c(C(F)F)nn(C)c1F)C1CC1 (centres unmarked) [Example 93] | – | – | – | – | – | – | 100 | 100
